We go through 2 molecules from patent US20140045809A1, “CORROLES FOR NEUROPROTECTION AND NEURORESCUE” (priority 2008, published 2014).

Where two headings read alike, the source gives them in different places.

Assay [1] deals with SH-SY5Y cells. Format: cell-based. On the procedure:
Human neuroblastoma cell line was also examined under conditions similar to RIN-m cells to reveal the corrole's ability to prevent neuronal death caused by oxidative stress. SH-SY5Y cells were plated in microtiter plates (96 wells) in DMEM-Eagle/F-12(HAM) (1:1), containing 10% FCS. To examine neuroprotective effect, SH-SY5Y cells were treated for 30 min with corroles 1C-Fe and 5C-Fe (20 and 50 μM) before addition of 20 μM H2O2 for 24 h. To examine neurorescue, SH-SY5Y cells were first exposed to 20 μM H2O2 for 0.5 h, 1.5 h or 3 h, followed by the addition of corroles 1C-Fe and 5C-Fe (20 μM) and incubation for 24 h.
Compounds 1C-Fe and 1P-Fe (1-50 μM) were added 30 min before insult with H2O2 (200 μM), followed by a subsequent 24 h period. The neuroprotective effects of the iron corrole 1C-Fe and its structurally analogous iron porphyrin 1P-Fe, against H2O2-induced neurotoxicity were investigated using MTT reduction assay and cell death ELISA, based on the use of mouse monoclonal antibodies to detect free histones and fragmented DNA (F. Hollderieder et al, Biochemica 2002, 1, 25). […] In light of the observed neuroprotective effect of corrole 1C-Fe, we attempted to determine the length of the delay between H2O2 exposure and corrole 1C-Fe treatment that would still afford neuroprotection. H2O2 was administered to SH-SY5Y cells and corrole 1C-Fe was then added for 0.5-1.5 h thereafter. […]

For assay [2], the system named is NSC-34 G93A cells. Description: Cell culture model of familial ALS, NSC-34 cells expressing mutant G93A-SOD1. Format: cell-based, mouse. The note with it: 48 h induction; even at a concentration as low as 0.5 μM. On the procedure: Mutant-superoxide dismutase (G93A-SOD1) is associated with familial amyotrophic lateral sclerosis (FALS). A cell culture model of FALS was implemented by stably transfecting mouse motoneuronal NSC-34 cells or SH-SY5Y cells, to express mutant G93A-SOD1 at levels approximating those seen in the human disease. NSC-34 cells or SH-SY5Y cells were incubated in Dulbecco's modified Eagle's/F-12 medium supplemented with 10% FCS tetracycline-free (FCS Tet-free; Clontech), at 37° C. in an atmosphere of 5% CO2 in air. These cell lines are stably transfected with the pTet-ON plasmid (Clontech, Palo Alto, Calif.) coding for the reverse tetracycline controlled transactivator (rtTA). Induction of mutant SOD1 expression was obtained by shifting nonconfluent cultures into growth medium containing 1% N2 supplement (Invitrogen, Carlsbad, Calif.) and […] doxocyclin for 48 h in the presence or absence of corrole 1C-Fe and 5C-Fe.

Assay [3] addresses transferrin (Homo sapiens, UniProt P02787). Description: Binding of corrole complexes to transferrin. The note with it: preliminary experiments. The text has this: Issues regarding biodistribution, transport mechanisms, accumulation in specific organs, and the eventual elimination of administered compounds are among the prime concerns when it comes to real life utilization of potential drugs. This can be addressed by several and quite different means, including in vitro, in vivo and ex-vivo examinations. One way to predict distribution is via examination of the binding of the corroles to circulating proteins that might act as transporters, similar to experiment performed previously by the inventors with metal complexes of corrole 1C (Scheme 1), which spontaneously form tightly bound non-covalent bioconjugates with HDL (Haber et al., 2007), albumin (Mahammed et al., 2004), and transferrin (Haber and Gross. 2007) (listed in increasing order of affinity), as well as with semi-synthetic proteins (Agadjanian et al., 2006). […] A more direct approach relies on the strong fluorescence of corroles that are not chelated by transition metals (no metal such as in corroles 1C and 2C, or using corrole Ga/Al complexes such as 1C-Ga). This feature is used for testing cell entry via confocal microscopy (Agadjanian et al., 2006), without the need of attaching a fluorescent tag. Furthermore, it may even be used for whole animal imaging purposes, as shown in Example 4 hereinabove. […]

Sequence of transferrin (P02787 20-698, species assumed): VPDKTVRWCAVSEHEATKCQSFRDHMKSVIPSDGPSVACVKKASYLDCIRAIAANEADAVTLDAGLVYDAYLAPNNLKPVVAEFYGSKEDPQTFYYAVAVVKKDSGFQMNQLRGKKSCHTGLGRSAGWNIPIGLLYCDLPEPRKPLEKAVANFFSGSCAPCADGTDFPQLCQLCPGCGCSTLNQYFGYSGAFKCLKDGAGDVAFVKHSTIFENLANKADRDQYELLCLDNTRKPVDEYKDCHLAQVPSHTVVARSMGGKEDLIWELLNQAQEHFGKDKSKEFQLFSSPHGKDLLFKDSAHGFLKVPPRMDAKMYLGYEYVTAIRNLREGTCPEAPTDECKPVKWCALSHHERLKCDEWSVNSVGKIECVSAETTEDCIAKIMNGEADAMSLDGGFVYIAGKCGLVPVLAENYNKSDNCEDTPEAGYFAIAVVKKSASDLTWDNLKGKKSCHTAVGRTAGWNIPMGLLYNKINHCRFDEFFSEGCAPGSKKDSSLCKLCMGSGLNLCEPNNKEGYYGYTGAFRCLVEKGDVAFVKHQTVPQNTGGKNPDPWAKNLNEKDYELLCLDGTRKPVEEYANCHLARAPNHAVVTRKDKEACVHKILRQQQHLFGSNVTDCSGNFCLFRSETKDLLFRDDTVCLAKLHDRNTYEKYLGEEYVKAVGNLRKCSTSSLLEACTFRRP

Take `O=S(=O)(O)c1cc2[n]3c1C(c1c(F)c(F)c(F)c(F)c1F)=C1C=CC4=[N+]1[Fe-]31[n]3c(cc(S(=O)(=O)O)c3-2)C(c2c(F)c(F)c(F)c(F)c2F)=c2ccc([n]21)=C4c1c(F)c(F)c(F)c(F)c1F` (stereo not drawn) [1C-Fe, 2,17-bis(sulfonato)-5,10,15-tris(pentafluorophenyl)-corrolato iron(III)]: in assay [1] (20 μM H2O2 for 0.5, 1.5 or 3 h, then 20 μM corrole, 24 h), the “neurorescue after H2O2 insult” value was “instigated neurorescue”. Besides, the “cell viability (MTT reduction)” value in assay [1] (1-20 μM, 30 min before 200 μM H2O2, 24 h) is “dose-dependently increased cell viability”. The “neuroprotective effect, corrole added after H2O2” value is on record as “significantly protected” in assay [1] (1 and 1.5 h post-H2O2 insult, extent of protection gradually decreased); “remained unaltered” in assay [1] (0.5 h post-H2O2 insult). The “neuroprotective effect against H2O2-induced toxicity” value in assay [1] (20 and 50 μM, 30 min before 20 μM H2O2, 24 h) was “dose-dependent neuroprotective effect”. The “cell death (ELISA detection assay)” value in assay [1] (30 min before 200 μM H2O2, 24 h) was “significantly and dose-dependently protected”. For the same molecule, the “protection from H2O2-induced neurotoxicity compared with porphyrin” value in assay [1] (all concentrations studied (1-50 μM), 200 μM H2O2) is given as “displayed superiority over porphyrin 1P-Fe”. In addition, in assay [2], the “cell viability of induced mutant cells” value is listed as “significantly improved cell viability”.
On to `C[n+]1ccc(C2=C3C=CC4=[N+]3[Mn-]35[n]6c2ccc6-c2ccc([n]23)C(c2cc[n+](C)cc2)=c2ccc([n]25)=C4c2c(F)c(F)c(F)c(F)c2F)cc1.[I-].[I-]` (stereo not drawn) [2C-Mn, 5,15-bis(4-N-methyl-pyridilium)-10-pentafluorophenyl-corrolato manganese(III) diiodide salt], for which the binding to transferrin entry in assay [3] was “still do so for transferrin”.
